For seven compounds, TD50 and carcinogen call results are on record in PubChem BioAssay AID1745844 (Carcinogenic Potency Database (CPDB), 2022).

The source made the active and inactive calls. No rule for the calls is given here.

In the data set the test system is rodent lifetime carcinogenesis bioassay, tumor incidence TD50. The experiment in a line: chronic cancer bioassays in animals – CPDB, compiled studies (AID 1745844).

One may read the TD50 as the dose at which the toxic effect under study appears in half of the subjects. On to `CN(C)CCOC(C)(c1ccccc1)c1ccccn1` (stereo not drawn), for which the TD50 (mouse, strain B6C3F1, females, in feed, site: liver, lesion: hepatocellular adenoma, dosed 104 weeks, study length 104 weeks) was 633 mg/kg/day; the TD50 (mouse, strain B6C3F1, females, in feed, site: lung, lesion: alveolar/bronchiolar adenoma, dosed 65 weeks, study length 65 weeks) is 78.7 mg/kg/day; the TD50 (mouse, strain B6C3F1, females, in feed, site: lung, lesion: several types, types named in the paper, dosed 104 weeks, study length 104 weeks) stood at 170 mg/kg/day; the TD50 (mouse, strain B6C3F1, females, in feed, site: thyroid gland, lesion: follicular-cell adenoma, dosed 104 weeks, study length 104 weeks) was 740 mg/kg/day; the TD50 (mouse, strain B6C3F1, females, in feed, site: thyroid gland, lesion: follicular-cell tumor, dosed 104 weeks, study length 104 weeks) was 672 mg/kg/day; the TD50 (mouse, strain B6C3F1, males, in feed, site: liver, lesion: hepatocellular adenoma, dosed 65 weeks, study length 65 weeks) came to 77.8 mg/kg/day. The TD50 (mouse, strain B6C3F1, males, in feed, site: liver, lesion: hepatocellular adenoma, dosed 104 weeks, study length 104 weeks) is 144 mg/kg/day; the TD50 (mouse, strain B6C3F1, males, in feed, site: liver, lesion: several types, types named in the paper, dosed 104 weeks, study length 104 weeks) was 125 mg/kg/day; the TD50 (mouse, strain B6C3F1, males, in feed, site: lung, lesion: alveolar/bronchiolar adenoma, dosed 65 weeks, study length 65 weeks) came out at 3180 mg/kg/day; the TD50 (mouse, strain B6C3F1, males, in feed, site: thyroid gland, lesion: follicular-cell adenoma, dosed 104 weeks, study length 104 weeks) was 273 mg/kg/day; the TD50 (rat, strain Fischer 344, males, in feed, site: all sites, lesion: mononuclear-cell leukemia, dosed 104 weeks, study length 104 weeks) is 271 mg/kg/day; the TD50 (rat, strain Fischer 344, males, in feed, site: liver, lesion: hepatocellular adenoma, dosed 65 weeks, study length 65 weeks) was found to be 469 mg/kg/day. Besides, the TD50 was 3270 mg/kg/day (rat, strain Fischer 344, males, in feed, site: liver, lesion: hepatocellular adenoma, dosed 104 weeks, study length 104 weeks); 3270 mg/kg/day (rat, strain Fischer 344, males, in feed, site: liver, lesion: hepatocellular carcinoma, dosed 104 weeks, study length 104 weeks); 1610 mg/kg/day (rat, strain Fischer 344, males, in feed, site: liver, lesion: several types, types named in the paper, dosed 104 weeks, study length 104 weeks). In addition, the carcinogen call (rat, strain Fischer 344, females, in feed, site: liver, lesion: several types, types named in the paper, dosed 104 weeks, study length 104 weeks) was “negative (inactive)”.
For the compound `CC[N+](=O)[O-]`, the TD50 (rat, strain Long-Evans BLU:(LE), females, inhaled, site: liver, lesion: hepatocellular carcinoma, dosed 105 weeks, study length 105 weeks) was 2190 mg/kg/day (inactive). The carcinogen call (rat, strain Long-Evans BLU:(LE), males, inhaled, site: liver, lesion: one or several types, types not named, dosed 105 weeks, study length 105 weeks) is “negative (inactive)”.
`Nc1ccc2c(c1)C(=O)c1ccccc1C2=O`: the TD50 was 1490 mg/kg/day (mouse, strain B6C3F1, females, in feed, site: all sites + liver, lesion: lymphoma + hepatocellular carcinoma, dosed 79 weeks, study length 94 weeks); 3160 mg/kg/day (mouse, strain B6C3F1, females, in feed, site: all sites, lesion: lymphoma, dosed 79 weeks, study length 94 weeks); 1620 mg/kg/day (mouse, strain B6C3F1, females, in feed, site: any site (literature study), lesion: several types, types named in the paper, dosed 79 weeks, study length 94 weeks); 2820 mg/kg/day (mouse, strain B6C3F1, females, in feed, site: liver, lesion: hepatocellular adenoma + hepatocellular carcinoma + neoplastic nodule, dosed 79 weeks, study length 94 weeks); 2820 mg/kg/day (mouse, strain B6C3F1, females, in feed, site: liver, lesion: hepatocellular carcinoma, dosed 79 weeks, study length 94 weeks); 33400 mg/kg/day (mouse, strain B6C3F1, females, in feed, site: lung, lesion: alveolar/bronchiolar adenoma + alveolar/bronchiolar carcinoma, dosed 79 weeks, study length 94 weeks). Further, the TD50 (mouse, strain B6C3F1, males, in feed, site: any site (literature study), lesion: several types, types named in the paper, dosed 79 weeks, study length 93 weeks) is 952 mg/kg/day; the TD50 (mouse, strain B6C3F1, males, in feed, site: liver, lesion: hepatocellular adenoma + hepatocellular carcinoma + neoplastic nodule, dosed 79 weeks, study length 93 weeks) was 798 mg/kg/day; the TD50 (mouse, strain B6C3F1, males, in feed, site: liver, lesion: hepatocellular adenoma + hepatocellular carcinoma, dosed 79 weeks, study length 93 weeks) was 798 mg/kg/day; the TD50 (mouse, strain B6C3F1, males, in feed, site: liver, lesion: hepatocellular carcinoma, dosed 79 weeks, study length 93 weeks) was 755 mg/kg/day; the TD50 (mouse, strain B6C3F1, males, in feed, site: lung, lesion: alveolar/bronchiolar adenoma + alveolar/bronchiolar carcinoma, dosed 79 weeks, study length 93 weeks) is 19400 mg/kg/day; the TD50 (rat, strain Fischer 344, females, in feed, site: any site (literature study), lesion: several types, types named in the paper, dosed 78 weeks, study length 109 weeks) is 124 mg/kg/day (inactive). Besides, the TD50 (rat, strain Fischer 344, males, in feed, site: any site (literature study), lesion: several types, types named in the paper, dosed 78 weeks, study length 106 weeks) is 759 mg/kg/day; the TD50 (rat, strain Fischer 344, males, in feed, site: liver, lesion: hepatocellular adenoma + hepatocellular carcinoma + neoplastic nodule, dosed 78 weeks, study length 106 weeks) stood at 101 mg/kg/day; the TD50 (rat, strain Fischer 344, males, in feed, site: liver, lesion: hepatocellular carcinoma + neoplastic nodule, dosed 78 weeks, study length 106 weeks) is 101 mg/kg/day; the TD50 (rat, strain Fischer 344, males, in feed, site: liver, lesion: hepatocellular carcinoma, dosed 78 weeks, study length 106 weeks) is 268 mg/kg/day.
`Nc1ccc2c(n1)[nH]c1ccccc12`: the TD50 runs as follows: (mouse, strain CDF1, females, in feed, site: blood vessels, lesion: hemangioendothelial sarcoma, dosed 97 weeks, study length 97 weeks) 381 mg/kg/day; (mouse, strain CDF1, females, in feed, site: liver, lesion: hepatocellular carcinoma, dosed 97 weeks, study length 97 weeks) 44.7 mg/kg/day; (mouse, strain CDF1, females, in feed, site: liver, lesion: several types, types named in the paper, dosed 97 weeks, study length 97 weeks) 35.6 mg/kg/day; (mouse, strain CDF1, females, in feed, site: lung, lesion: adenoma, dosed 97 weeks, study length 97 weeks) 795 mg/kg/day; (mouse, strain CDF1, females, in feed, site: lung, lesion: several types, types named in the paper, dosed 97 weeks, study length 97 weeks) 1150 mg/kg/day; (mouse, strain CDF1, males, in feed, site: blood vessels, lesion: hemangioendothelial sarcoma, dosed 97 weeks, study length 97 weeks) 103 mg/kg/day. For the same compound, the TD50 reads like this: (mouse, strain CDF1, males, in feed, site: blood vessels, lesion: several types, types named in the paper, dosed 97 weeks, study length 97 weeks) 82.6 mg/kg/day; (mouse, strain CDF1, males, in feed, site: liver, lesion: hepatocellular adenoma, dosed 97 weeks, study length 97 weeks) 352 mg/kg/day; (mouse, strain CDF1, males, in feed, site: liver, lesion: hepatocellular carcinoma, dosed 97 weeks, study length 97 weeks) 225 mg/kg/day; (mouse, strain CDF1, males, in feed, site: liver, lesion: several types, types named in the paper, dosed 97 weeks, study length 97 weeks) 122 mg/kg/day.
In the case of `CC(CN1c2ccccc2Sc2ccccc21)N(C)C` (stereo not drawn), the carcinogen call reads like this: (mouse, strain B6C3F1, females, by gavage, site: any site (literature study), lesion: several types, types named in the paper, dosed 104 weeks, study length 105 weeks) “negative (inactive)”; (rat, strain Fischer 344, females, by gavage, site: any site (literature study), lesion: several types, types named in the paper, dosed 103 weeks, study length 104 weeks) “negative (inactive)”. In addition, the TD50 by setting is: (mouse, strain B6C3F1, females, by gavage, site: liver, lesion: hepatocellular adenoma + hepatoblastoma + hepatocellular carcinoma, dosed 104 weeks, study length 105 weeks) 47.8 mg/kg/day; (mouse, strain B6C3F1, males, by gavage, site: any site (literature study), lesion: several types, types named in the paper, dosed 103 weeks, study length 104 weeks) 393 mg/kg/day (inactive); (mouse, strain B6C3F1, males, by gavage, site: liver, lesion: hepatocellular adenoma + hepatoblastoma + hepatocellular carcinoma, dosed 103 weeks, study length 104 weeks) 157 mg/kg/day; (rat, strain Fischer 344, females, by gavage, site: liver, lesion: hepatocellular adenoma + hepatoblastoma + hepatocellular carcinoma, dosed 103 weeks, study length 104 weeks) 418 mg/kg/day; (rat, strain Fischer 344, males, by gavage, site: any site (literature study), lesion: several types, types named in the paper, dosed 102 weeks, study length 102 weeks) 24.6 mg/kg/day; (rat, strain Fischer 344, males, by gavage, site: testis, lesion: interstitial-cell adenoma, bilateral + interstitial-cell adenoma, dosed 102 weeks, study length 102 weeks) 10.3 mg/kg/day (inactive).
For the compound `CC=O`, the TD50 was 1140 mg/kg/day (hamster, strain Syrian Golden, females, inhaled, site: larynx, lesion: adenosquamous carcinoma, dosed 52 weeks, study length 81 weeks); 728 mg/kg/day (hamster, strain Syrian Golden, females, inhaled, site: larynx, lesion: several types, types named in the paper, dosed 52 weeks, study length 81 weeks); 2360 mg/kg/day (hamster, strain Syrian Golden, females, inhaled, site: larynx, lesion: squamous-cell carcinoma, dosed 52 weeks, study length 81 weeks); 641 mg/kg/day (hamster, strain Syrian Golden, males, inhaled, site: larynx, lesion: carcinoma, in situ, dosed 52 weeks, study length 81 weeks); 461 mg/kg/day (hamster, strain Syrian Golden, males, inhaled, site: larynx, lesion: several types, types named in the paper, dosed 52 weeks, study length 81 weeks); 2070 mg/kg/day (hamster, strain Syrian Golden, males, inhaled, site: larynx, lesion: squamous-cell carcinoma, dosed 52 weeks, study length 81 weeks). The TD50 is, setting by setting: (hamster, strain Syrian Golden, males, inhaled, site: nose, lesion: anaplastic carcinoma, dosed 52 weeks, study length 81 weeks) 2070 mg/kg/day; (hamster, strain Syrian Golden, males, inhaled, site: respiratory system, lesion: several types, types named in the paper, dosed 52 weeks, study length 81 weeks) 461 mg/kg/day; (rat, strain Wistar-random, females, inhaled, site: nasal mucosa, lesion: adenocarcinoma, dosed 50 weeks, study length 105 weeks) 201 mg/kg/day; (rat, strain Wistar-random, females, inhaled, site: nasal mucosa, lesion: several types, types named in the paper, dosed 50 weeks, study length 105 weeks) 148 mg/kg/day; (rat, strain Wistar-random, females, inhaled, site: nasal mucosa, lesion: squamous-cell carcinoma, dosed 50 weeks, study length 105 weeks) 574 mg/kg/day; (rat, strain Wistar-random, males, inhaled, site: nasal mucosa, lesion: adenocarcinoma, dosed 50 weeks, study length 105 weeks) 190 mg/kg/day. Further, the TD50 (rat, strain Wistar-random, males, inhaled, site: nasal mucosa, lesion: several types, types named in the paper, dosed 50 weeks, study length 105 weeks) is 88.5 mg/kg/day; the TD50 (rat, strain Wistar-random, males, inhaled, site: nasal mucosa, lesion: squamous-cell carcinoma, dosed 50 weeks, study length 105 weeks) was 200 mg/kg/day; the TD50 (rat, strain Wistar, females, inhaled, site: nose, lesion: adenocarcinoma, dosed 111 weeks, study length 121 weeks) was 370 mg/kg/day; the TD50 (rat, strain Wistar, females, inhaled, site: nose, lesion: carcinoma, in situ, dosed 111 weeks, study length 121 weeks) was 3000 mg/kg/day; the TD50 (rat, strain Wistar, females, inhaled, site: nose, lesion: squamous-cell carcinoma, dosed 111 weeks, study length 121 weeks) is 1030 mg/kg/day; the TD50 (rat, strain Wistar, males, inhaled, site: nose, lesion: adenocarcinoma, dosed 111 weeks, study length 121 weeks) was 185 mg/kg/day. Besides, the TD50 (rat, strain Wistar, males, inhaled, site: nose, lesion: squamous-cell carcinoma, dosed 111 weeks, study length 121 weeks) was 627 mg/kg/day.
As for `C=CCN(CC(C)=O)N=O`, the TD50 was 21.2 mg/kg/day (hamster, strain Syrian Golden, females, by gavage, site: liver, lesion: cholangiocarcinoma, dosed 40 weeks, study length 55 weeks); 4.87 mg/kg/day (hamster, strain Syrian Golden, females, by gavage, site: liver, lesion: hepatocellular adenoma, dosed 40 weeks, study length 55 weeks); 3.78 mg/kg/day (hamster, strain Syrian Golden, females, by gavage, site: liver, lesion: several types, types named in the paper, dosed 40 weeks, study length 55 weeks); 1.36 mg/kg/day (hamster, strain Syrian Golden, females, by gavage, site: nasal mucosa, lesion: carcinoma, dosed 40 weeks, study length 55 weeks); 1.19 mg/kg/day (hamster, strain Syrian Golden, females, by gavage, site: nasal mucosa, lesion: several types, types named in the paper, dosed 40 weeks, study length 55 weeks); 1.25 mg/kg/day (rat, strain Fischer 344, females, in drinking water, site: esophagus, lesion: several types, types named in the paper, dosed 50 weeks, study length 85 weeks). For the same compound, the TD50 (rat, strain Fischer 344, females, in drinking water, site: liver, lesion: hepatocellular carcinoma, dosed 50 weeks, study length 85 weeks) was 0.335 mg/kg/day.
